Data published in patent US11472798B2 (Mission Therapeutics Limited, priority 2014, dated 2022).

Target: T1, UCHL1 (Homo sapiens, UniProt P09936)
T1 construct: made in house; host or cells: HEK293T
T1 sequence (P09936 1-223): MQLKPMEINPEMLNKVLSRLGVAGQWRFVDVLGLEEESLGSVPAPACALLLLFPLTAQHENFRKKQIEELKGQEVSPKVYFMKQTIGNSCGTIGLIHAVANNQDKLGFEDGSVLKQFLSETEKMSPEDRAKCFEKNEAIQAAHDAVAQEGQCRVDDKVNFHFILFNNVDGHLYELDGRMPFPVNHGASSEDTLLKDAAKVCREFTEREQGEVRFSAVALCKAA
Test: UCHL1 biochemical IC50 assay (fluorescence polarisation)
Details: 30 min enzyme/compound pre-incubation at room temp, read after 2 hr incubation, read-out: Activity range (UCHL1 biochemical IC50 assay)
Source text: Biological Activity of Compounds of the Invention Abbreviations: TAMRA carboxytetramethylrhodamine PCR polymerase chain reaction PBS phosphate buffered saline EDTA ethylenediaminetetraacetic acid Tris 2-amino-2-(hydroxymethyl)-1,3-propanediol NP-40 Nonidet P-40, octylphenoxypolyethoxyethanol BSA bovine serum albumin In Vitro UCHL1 Inhibition Assay Expression and Purification of UCHL1
The UCHL1 construct was PCR amplified and cloned into a pFLAG-CMV-6a vector (Sigma-Aldrich) with an N-terminal FLAG tag. HEK293T cells were transfected with FLAG-UCHL1 using TransIT-LT1 transfection reagent (Mirus) according to the manufacturer's instructions. Cells were harvested 40 hours after transfection. Cells were washed once with PBS and scraped in lysis buffer (50 mM Tris, pH 7.5, 150 mM NaCl, 3 mM EDTA, 0.5% NP40, 10% glycerol, 5 mM beta-mercaptoethanol, protease inhibitors (complete mini, Roche) and phosphatase inhibitors (PhosSTOP mini, Roche). Lysates were incubated for 30 min on ice and centrifuged at 1200 rpm for 10 min at 4° C. Soluble supernatant was added to FLAG affinity resin (EZview Rad ANTI-FLAG M2 affinity gel, Sigma-Aldrich) equilibrated in low salt buffer (20 mM Tris, pH 7.5, 150 mM NaCl, 0.5 mM EDTA, 5 mM beta-mercaptoethanol) and incubated at 4° C. for 3 hours rotating. The resin was spun at 2000 rpm for 2 min and the supernatant was removed. The resin was washed two times with low salt buffer and one time with high salt buffer (20 mM Tris, pH 7.5, 500 mM NaCl, 0.5 mM EDTA, 5 mM beta-mercaptoethanol, protease inhibitors (complete mini, Roche) and phosphatase inhibitors (PhosSTOP mini, Roche). To elute the bound UCHL1, elution buffer (10 mM Tris, pH 7.5, 150 mM NaCl, 0.5 mM FDTA, 10% glycerol, 0.5% NP40, 5 mM beta-mercaptoethanol, 0.15 mg/ml 3×FLAG peptide (Sigma-Aldrich)) was added to the resin and incubated at 4° C. for 2.5 hours rotating. The resin was centrifuged at 4000 rpm for 30 seconds, and the supernatant containing purified FLAG-UCHL1 was removed and stored at −80° C.
UCHL1 Biochemical IC50 Assay
Dilution plates were prepared at 21 times the final concentration (2100 μM for a final concentration of 100 µM) in 50% DMSO in a 96-well polypropylene V-bottom plate (Greiner #651201). A typical 8-point dilution series to be 100, 30, 10, 3, 1, 0.3, 0.1, 0.03 μM final. Reactions were performed in duplicate in black 384 well plates (small volume, Greiner 784076) in a final reaction volume of 21 μl. Either 1 μl of 50% DMSO or diluted compound was added to the plate. UCHL1 was diluted in reaction buffer (20 mM Tris, pH 7.5, 100 mM NaCl, 0.05% Tween 20, 0.5 mg/ml BSA, 5 mM—beta mercaptoethanol) to the equivalent of 0.05 μl/well and 10 μl of diluted UCHL1 was added to the compound. Enzyme and compound were incubated for 30 min at room temp. Reactions were initiated by the addition of 50 nM of TAMRA labelled peptide linked to ubiquitin via an iso-peptide bond as fluorescence polarisation substrate. Reactions were read immediately after addition of substrate and following a 2 hr incubation at room temperature. Readings were performed on a Pherastar Plus (BMG Labtech). λ Excitation 540 nm; k Emission 590 nm.

IC50 [µM]	Compound
1 to 10	N#CN1CCC(C(=O)Nc2ccc(N3CCOCC3)cn2)C1 (centres unmarked) [Example 28, 1-cyano-N-(5-morpholino-pyridin-2-yl)pyrrolidine-3-carboxamide]
1 to 10	N#CN1CCC(C(=O)Nc2ccc(N3CCCCC3)cn2)C1 (centres unmarked) [Example 29, 1-cyano-N-(5-(piperidin-1-yl)pyridin-2-yl)pyrrolidine-3-carboxamide]
10 to 30	N#CN1CCC(C(=O)Nc2ccc(-n3ccnc3)cn2)C1 (centres unmarked) [Example 30, N-(5-(1H-imidazol-1-yl)pyridin-2-yl)-1-cyano-pyrrolidine-3-carboxamide]
1 to 10	N#CN1CCC(C(=O)Nc2cc(-c3ccccc3)ccn2)C1 (centres unmarked) [Example 31, 1-cyano-N-(4-phenylpyridin-2-yl)pyrrolidine-3-carboxamide]
1 to 10	N#CN1CCC(C(=O)Nc2ccc(-c3ccccn3)cn2)C1 (centres unmarked) [Example 32, N-([2,3′-bipyridin]-6′-yl)-1-cyano-pyrrolidine-3-carboxamide]
1 to 10	N#CN1CCC(C(=O)Nc2ccc(-c3cccnc3)cn2)C1 (centres unmarked) [Example 33, N-([3,3′-bipyridin]-6-yl)-1-cyano-pyrrolidine-3-carboxamide]
1 to 10	N#CN1CCC(C(=O)Nc2ccc(-c3ccncc3)cn2)C1 (centres unmarked) [Example 34, N-([3,4′-bipyridin]-6-yl)-1-cyano-pyrrolidine-3-carboxamide]
1 to 10	N#CN1CCC(C(=O)Nc2ccc(-c3ccccc3)nc2)C1 (centres unmarked) [Example 35, 1-cyano-N-(6-phenylpyridin-3-yl)pyrrolidine-3-carboxamide]
10 to 30	N#CN1CCC(C(=O)Nc2ccc(-c3ccccc3)nn2)C1 (centres unmarked) [Example 36, 1-cyano-N-(6-phenyl-pyridazin-3-yl)pyrrolidine-3-carboxamide]
10 to 30	N#CN1CCC(C(=O)Nc2cnc(-c3ccccc3)nc2)C1 (centres unmarked) [Example 37, 1-cyano-N-(2-phenyl-pyrimidin-5-yl)pyrrolidine-3-carboxamide]
1 to 10	N#CN1CCC(C(=O)Nc2ccc(C3CCCCC3)cn2)C1 (centres unmarked) [Example 38, 1-cyano-N-(5-cyclohexyl-pyridin-2-yl)pyrrolidine-3-carboxamide]
10 to 30	N#CN1CCC(C(=O)Nc2ccc3c(cnn3Cc3ccccc3)c2)C1 (centres unmarked) [Example 39, N-(1-benzyl-1H-indazol-5-yl)-1-cyano-pyrrolidine-3-carboxamide]
1 to 10	CCCn1cnc2cc(NC(=O)C3CCN(C#N)C3)ccc21 (centres unmarked) [Example 40, 1-cyano-N-(1-propyl-1H-benzo[d]imidazol-5-yl)pyrrolidine-3-carboxamide]
< 1	N#CN1CC[C@H](C(=O)Nc2cn(-c3ccccc3)cn2)C1 [Example 41, (S)-1-cyano-N-(1-phenyl-1H-imidazol-4-yl)pyrrolidine-3-carboxamide]
< 1	N#CN1CC[C@H](C(=O)Nc2cc(-c3ccccc3)[nH]n2)C1 [Example 42, (S)-1-cyano-N-(5-phenyl-1H-pyrazol-3-yl)pyrrolidine-3-carboxamide]
< 1	N#CN1CC[C@H](C(=O)Nc2cc(C3CCOCC3)[nH]n2)C1 [Example 43, (S)-1-cyano-N-(5-(tetrahydro-2H-pyran-4-yl)-1H-pyrazol-3-yl)pyrrolidine-3-carboxamide]
1 to 10	N#CN1CC[C@H](C(=O)Nc2cn(-c3ccccc3)nn2)C1 [Example 44, (S)-1-cyano-N-(1-phenyl-1H-1,2,3-triazol-4-yl)pyrrolidine-3-carboxamide]
10 to 30	N#CN1CC[C@H](C(=O)Nc2ccn(-c3ccccc3)n2)C1 [Example 45, (S)-1-cyano-N-(1-phenyl-1H-pyrazol-3-yl)pyrrolidine-3-carboxamide]
10 to 30	Cc1cccc2sc(NC(=O)[C@H]3CCN(C#N)C3)nc12 [Example 46, (S)-1-cyano-N (4-methylbenzo[d]thiazol-2-yl)pyrrolidine-3-carboxamide]
< 1	Cc1cccc2nc(NC(=O)[C@H]3CCN(C#N)C3)sc12 [Example 47, (S)-1-cyano-N-(7-methylbenzo[d]thiazol-2-yl)-pyrrolidine-3-carboxamide]
